# Assay results as given in US9980943B2, “Methods of treating muscular dystrophy” (BOARD OF REGENTS OF THE NEVADA SYSTEM OF HIGHER EDUCATION, …, priority 2013, dated 2018).
# Key:
# Assay type in all cases: cell-based, mouse
# [1] = tested on: α7 integrin (LacZ reporter in α7+/LacZ myotubes); assay: Myotube α7 integrin FDG assay (Burkin assay in myotubes, 96-well); settings: myotubes
# [2] = tested on: α7 integrin (LacZ reporter in α7βgal+/− myoblasts); assay: Myoblast α7+/LacZ integrin FDG assay (Burkin assay in myoblasts, 96-well); settings: α7+/LacZ myoblasts, 96-well
# [3] = tested on: β-galactosidase in CMV-LacZ C2C12 myotubes; assay: CMV-LacZ secondary screen in C2C12 myotubes (β-Gal stabilizing assay); settings: for CMV-LACZ in Myotubes (β-galactosidase activity relative to DMSO): CMV-LacZ C2C12 myotubes, 96-well format
# Summary of the method: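 β-gal stabilization was measured in C2C12 myoblasts or myotubes stably transfected with a CMV-driven LacZ construct, using the FDG β-gal assay. Compounds were tested in dose-response at 0.5, 1, 5, 10, 20 and 40 μM, with two replicates per point.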
# [4] = 5 uM, C2C12 CMV-LacZ myotubes, fold relative to DMSO
# [5] = 10 uM, C2C12 CMV-LacZ myotubes, fold relative to DMSO
# [6] = 20 uM, C2C12 CMV-LacZ myotubes, fold relative to DMSO
# [7] = 40 uM, C2C12 CMV-LacZ myotubes, fold relative to DMSO
SMILES,"Burkin Assay in Myotubes, α7 integrin LacZ reporter signal relative to DMSO ([1]; 0.5 uM)","Burkin Assay in Myotubes, α7 integrin LacZ reporter signal relative to DMSO ([1]; 1 uM)","Burkin Assay in Myotubes, α7 integrin LacZ reporter signal relative to DMSO ([1]; 5 uM)","Burkin Assay in Myotubes, α7 integrin LacZ reporter signal relative to DMSO ([1]; 10 uM)","Burkin Assay in Myotubes, α7 integrin LacZ reporter signal relative to DMSO ([1]; 20 uM)","Burkin Assay in Myotubes, α7 integrin LacZ reporter signal relative to DMSO ([1]; 40 uM)","Burkin Assay in Myoblasts, signal relative to DMSO ([2]; 0.5 uM)","Burkin Assay in Myoblasts, signal relative to DMSO ([2]; 1 uM)","Burkin Assay in Myoblasts, signal relative to DMSO ([2]; 5 uM)","Burkin Assay in Myoblasts, signal relative to DMSO ([2]; 10 uM)","Burkin Assay in Myoblasts, signal relative to DMSO ([2]; 20 uM)","Burkin Assay in Myoblasts, signal relative to DMSO ([2]; 40 uM)","CMV-LACZ in Myotubes, signal relative to DMSO [3, 4]","CMV-LACZ in Myotubes, signal relative to DMSO [3, 5]","CMV-LACZ in Myotubes, signal relative to DMSO [3, 6]","CMV-LACZ in Myotubes, signal relative to DMSO [3, 7]",Burkin Assay in Myotubes (signal relative to DMSO) ([1]; 0.5 uM),Burkin Assay in Myotubes (signal relative to DMSO) ([1]; 1 uM),Burkin Assay in Myotubes (signal relative to DMSO) ([1]; 5 uM),Burkin Assay in Myotubes (signal relative to DMSO) ([1]; 10 uM),further results
N#Cc1ccc(OCC(O)CS(=O)(=O)c2ccccc2)cc1 (stereo not drawn) [MLS000721584-01],0.9148,0.9833,0.8802,0.8867,0.9155,0.9927,0.933,0.8525,1.03,0.9846,0.8663,0.7628,0.9573,0.9071,1.133,1.1019,,,,,
COc1cc(C(C(=O)NC2CCCCC2)N(C(=O)c2snc(C(N)=O)c2N)c2ccc(C)cc2)ccc1O (stereo not drawn) [MLS001218427-01],0.8052,0.7974,0.8464,0.6054,0.3311,0.429,0.9466,0.9485,0.8334,0.7663,0.2232,0.3039,1.209,15.1793,34.571,0.6965,,,,,
O=C(NCCCn1ccnc1)/C(=C/c1cccs1)NC(=O)c1ccco1 [MLS000712769-01],,,,,,,,,,,,,0.9651,1.071,0.9141,0.8582,0.9746,0.8428,1.2524,0.9038,"Burkin Assay in Myotubes (signal relative to DMSO) ([1]; 20 uM): 0.9219; Burkin Assay in Myotubes (signal relative to DMSO) ([1]; 40 uM): 0.9817; Burkin Assay in Myoblasts, value relative to DMSO ([2]; 0.5 uM): 1.055; Burkin Assay in Myoblasts, value relative to DMSO ([2]; 1 uM): 1.059; Burkin Assay in Myoblasts, value relative to DMSO ([2]; 5 uM): 0.9476; Burkin Assay in Myoblasts, value relative to DMSO ([2]; 10 uM): 0.9286; Burkin Assay in Myoblasts, value relative to DMSO ([2]; 20 uM): 0.7697; Burkin Assay in Myoblasts, value relative to DMSO ([2]; 40 uM): 0.7893"
COc1ccccc1NC(=O)CCCc1c[nH]c2ccccc12 [MLS000334464-01],,,,,,,,,,,,,,,,,,,,,"fold induction at 0.5 µM ([1]; Mus musculus, Myotube, 0.5 uM, read-out: Burkin Assay in Myotubes (signal relative to DMSO)): 0.986; fold induction at 1 µM ([1]; Mus musculus, Myotube, 1 uM, read-out: Burkin Assay in Myotubes (signal relative to DMSO)): 0.88; fold induction at 5 µM ([1]; Mus musculus, Myotube, 5 uM, read-out: Burkin Assay in Myotubes (signal relative to DMSO)): 1; fold induction at 10 µM ([1]; Mus musculus, Myotube, 10 uM, read-out: Burkin Assay in Myotubes (signal relative to DMSO)): 0.992; fold induction at 20 µM ([1]; Mus musculus, Myotube, 20 uM, read-out: Burkin Assay in Myotubes (signal relative to DMSO)): 1.13; fold induction at 40 µM ([1]; Mus musculus, Myotube, 40 uM, read-out: Burkin Assay in Myotubes (signal relative to DMSO)): 0.666; fold induction at 0.5 µM ([2]; Mus musculus, Myoblast, 48 h, 0.5 uM, read-out: Burkin Assay in Myoblasts, value relative to DMSO): 1.13; fold induction at 1 µM ([2]; Mus musculus, Myoblast, 48 h, 1 uM, read-out: Burkin Assay in Myoblasts, value relative to DMSO): 1.11; fold induction at 5 µM ([2]; Mus musculus, Myoblast, 48 h, 5 uM, read-out: Burkin Assay in Myoblasts, value relative to DMSO): 1.18; fold induction at 10 µM ([2]; Mus musculus, Myoblast, 48 h, 10 uM, read-out: Burkin Assay in Myoblasts, value relative to DMSO): 1.14; fold induction at 20 µM ([2]; Mus musculus, Myoblast, 48 h, 20 uM, read-out: Burkin Assay in Myoblasts, value relative to DMSO): 0.896; fold induction at 40 µM ([2]; Mus musculus, Myoblast, 48 h, 40 uM, read-out: Burkin Assay in Myoblasts, value relative to DMSO): 1.08; fold induction at 5 µM ([3]; Mus musculus, C2C12, read-out: CMV-LACZ in Myotubes, signal relative to DMSO, 5 uM, C2C12 CMV-LacZ myotubes, fold relative to DMSO): 1.3; fold induction at 10 µM ([3]; Mus musculus, C2C12, read-out: CMV-LACZ in Myotubes, signal relative to DMSO, 10 uM, C2C12 CMV-LacZ myotubes, fold relative to DMSO): 1.08; fold induction at 20 µM ([3]; Mus musculus, C2C12, read-out: CMV-LACZ in Myotubes, signal relative to DMSO, 20 uM, C2C12 CMV-LacZ myotubes, fold relative to DMSO): 0.988; fold induction at 40 µM ([3]; Mus musculus, C2C12, read-out: CMV-LACZ in Myotubes, signal relative to DMSO, 40 uM, C2C12 CMV-LacZ myotubes, fold relative to DMSO): 0.964"
COCc1c(C(=O)OCc2nc3ccsc3c(=O)[nH]2)oc2ccccc12 [MLS002163386-01],,,,,,,,,,,,,,,,,1.104,1.048,1.112,1.064,"Burkin Assay in Myotubes (signal relative to DMSO) ([1]; 20 uM): 1.064; Burkin Assay in Myotubes (signal relative to DMSO) ([1]; 40 uM): 1.02; Burkin Assay in Myoblasts, value relative to DMSO ([2]; 0.5 uM): 1.0508; Burkin Assay in Myoblasts, value relative to DMSO ([2]; 1 uM): 0.9023; Burkin Assay in Myoblasts, value relative to DMSO ([2]; 5 uM): 1.034; Burkin Assay in Myoblasts, value relative to DMSO ([2]; 10 uM): 0.888; Burkin Assay in Myoblasts, value relative to DMSO ([2]; 20 uM): 1.014; Burkin Assay in Myoblasts, value relative to DMSO ([2]; 40 uM): 0.9388; CMV-LACZ in Myotubes (β-galactosidase activity relative to DMSO) ([3]; 5 uM): 0.9749; CMV-LACZ in Myotubes (β-galactosidase activity relative to DMSO) ([3]; 10 uM): 1.196; CMV-LACZ in Myotubes (β-galactosidase activity relative to DMSO) ([3]; 20 uM): 0.9465; CMV-LACZ in Myotubes (β-galactosidase activity relative to DMSO) ([3]; 40 uM): 1.066"
Cc1ccc(NC(=O)COc2ccccc2CNC(C)(C)CC(C)(C)C)cc1 [MLS000538580-01],1.087,1.025,0.8641,0.4774,0.928,0.1825,0.9645,0.9097,0.8691,0.5306,0.03863,0.02896,0.6613,0.5729,0.3838,0.2705,,,,,
